What was measured:
SspH1 (161–700) = SspH1 (161–700) (Salmonella typhimurium, UniProt D0ZVG2); assay: Round 1 intact protein LC-MS covalent fragment labelling screen and dilution series; type: binding; design: Recombinant IpaH9.8 (21–545) and SspH1 (161–700) were incubated at 0.5 μM; His-tag (N, cleaved yes); made in house; host or cells: E. coli BL21; settings: 24 hours at 4 °C
Procedure: A diverse library of 227 compounds with chloroacetamide warheads, featuring a diversity of molecular weight (162–321 Da) and clog P (−1.4 to 3.4) (Table S1), were screened against Salmonella and Shigella NEL E3 ligases using our intact protein liquid chromatography mass spectrometry (LC-MS) platform as previously described.[39,40] Briefly, recombinant SspH1 (161–700[30]) and IpaH9.8 (21–545[29]) (Fig. 1A and B) were incubated with 50 μM fragments for 24 hours at 4 °C before analysis by LC-MS (Fig. 1C). Raw counts were deconvoluted and the labelling percentage calculated by detection and comparison of protein and protein-fragment molecular weights.
Fig. 1 Intact protein LCMS screening of covalent fragment library against NEL proteins. (A) Cartoon depicting conserved NEL E3 ligase domains; (B) overlaid structures of SspH1 (blue, PDB 9H6W[30]) and IpaH9.8 (green, PDB 6LOL[29]) aligned on NEL domain; (C) workflow of covalent fragment screening using intact LC-MS; (D) fragment labelling percentages for SspH1 and IpaH9.8 with fragments 1–3 highlighted. Recombinant IpaH9.8 (21–545) and SspH1 (161–700) were incubated at 0.5 μM with 50 μM fragments for 24 hours at 4 °C, before fragment labelling was analysed by intact LC-MS; (E) chemical structures of fragments 1–3.
We next analysed the potency of compounds 4–10 against SspH1. The seven compounds were obtained as purified compounds (Table S2) and screened against SspH1 by intact LC-MS (Fig. 3A) with two-fold serial dilution (100–6.25 μM). To confirm which of the two cysteines in the SspH1 161–700 construct were labelled, we repeated the concentration response experiment with a catalytic cysteine mutant of SspH1 (C492K) (Fig. 3B). The complete abrogation of labelling confirmed that all […] compounds labelled the catalytic cysteine of SspH1.
1 μM IpaH9.8 or SspH1 were incubated with […] fragments for 24 hours at 4 °C, in 25 mM HEPES pH 7.5, 50 mM NaCl buffer. Intact protein LC-MS was performed as previously described.[40] The following deconvolution conditions were used for recombinant proteins studied in this work:
Dilution series experiments were performed as for 1st round screening. 1 μM OTUD4, OTUD5 or 0.5 μM HOIL, UbcH5A, SspH2, SspH1 C492K were incubated with 100–6.25 μM compounds for 24 hours at 4 °C, in 25 mM HEPES pH 7.5, 50 mM NaCl buffer. Intact protein LC-MS was performed as previously described.[40] The following deconvolution conditions were used for recombinant proteins studied in this work: […]

glutathione = assay: Glutathione reactivity assay; type: physicochemical; settings: 6 mM glutathione in PBS, 40 °C; read-out: GSH t1/2 (converted)
Procedure: 10 mM DMSO stocks of compounds 6 and 7 were diluted 20-fold with acetonitrile, and then further 5-fold diluted with 6 mM glutathione in PBS. The reaction was shaken before incubation at 40 °C. The reaction mixture was analysed via UPLC-UV-MS up to eight times across 24 hours, compared to known reference compounds and samples of each compound in distilled water. UPLC conditions: flow rate: 800 μL min^−1; column: acquity UPLC BEH C18 1.7 μm 2.1 × 50 mm; column temperature: 37 °C; mobile phase A: 0.1% formic acid in H2O; mobile phase B: 0.1% formic acid in 100% ACN; run time: 2 minutes; gradient elution: 97% A to 0% A; UV conditions: 210 to 350 nm range; MS conditions: single quad, ESI+, scan range: 50–1000 Da. For each time point, the UV peak area of the parent peak was extracted at a single wavelength (e.g., 254 nm). A pseudo-first-order rate constant (k) for each compound was determined from the slope of a linear regression fit for a plot of the […] peak area of the parent compound versus the time differential for the eight time points; the t1/2 is calculated as follows: t1/2 = 0.693/k.

Chain of SspH1 (161–700) (D0ZVG2 161-700): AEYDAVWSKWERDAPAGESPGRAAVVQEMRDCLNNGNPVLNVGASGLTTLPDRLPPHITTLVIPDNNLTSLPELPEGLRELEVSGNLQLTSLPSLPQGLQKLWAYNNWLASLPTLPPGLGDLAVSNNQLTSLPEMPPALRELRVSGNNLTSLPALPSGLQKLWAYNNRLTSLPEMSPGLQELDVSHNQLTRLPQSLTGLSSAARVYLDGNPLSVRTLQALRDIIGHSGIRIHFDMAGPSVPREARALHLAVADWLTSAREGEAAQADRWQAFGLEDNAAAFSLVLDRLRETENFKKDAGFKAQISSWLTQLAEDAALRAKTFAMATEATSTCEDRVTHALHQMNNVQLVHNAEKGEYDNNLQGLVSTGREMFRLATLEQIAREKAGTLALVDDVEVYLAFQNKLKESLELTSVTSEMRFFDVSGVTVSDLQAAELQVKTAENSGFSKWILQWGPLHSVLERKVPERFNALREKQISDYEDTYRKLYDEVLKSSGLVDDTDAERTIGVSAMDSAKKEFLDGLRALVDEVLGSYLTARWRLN

Row | SMILES | labelling of WT SspH1 (SspH1 (161–700); purified compound at 6.25 μM) | labelling of WT SspH1 (SspH1 (161–700); purified compound at 12.5 μM) | half-life at 100 µM (glutathione)
1 | Cl.O=C(CCl)N1CCC(n2c(-c3ccc(C(F)(F)F)cc3)nc3ccccc32)CC1 [compound 7] | > 60% | > 80% | 4 h
2 | Cc1cc(-c2nc3ccccc3n2C2CCN(C(=O)CCl)CC2)cc(C)c1O.Cl [compound 6] | > 60% | > 80% | 4.9 h

Reference: publication PMC12584752, “Covalent fragment screening to inhibit the E3 ligase activity of bacterial NEL enzymes SspH1 and SspH2” (RSC Chemical Biology, 2025)
